Data reported in publication PMC6797808, “Fucosylated inhibitors of recently identified bangle lectin from Photorhabdus asymbiotica” (Scientific Reports, 2019).
In brackets after ≈: the same amount, converted by molar mass. Marks after values point to notes of the source that are not given here.

Tests used:
PHL [1] = biological target: T1, PHL (Photorhabdus asymbiotica, UniProt C7BLE4); assay: SPR competitive inhibition of PHL binding to α-L-fucoside sensor chip; settings: for IC50: 25 °C, three independent measurements; for β L-Fuc (affinity improvement factor): IC50,basic unit/(valency × IC50,ligand), basic unit L-Fuc; for PotencyL-Fuc: IC50 L-fucose / IC50 ligand
T1 sequence (C7BLE4 entry or part of it): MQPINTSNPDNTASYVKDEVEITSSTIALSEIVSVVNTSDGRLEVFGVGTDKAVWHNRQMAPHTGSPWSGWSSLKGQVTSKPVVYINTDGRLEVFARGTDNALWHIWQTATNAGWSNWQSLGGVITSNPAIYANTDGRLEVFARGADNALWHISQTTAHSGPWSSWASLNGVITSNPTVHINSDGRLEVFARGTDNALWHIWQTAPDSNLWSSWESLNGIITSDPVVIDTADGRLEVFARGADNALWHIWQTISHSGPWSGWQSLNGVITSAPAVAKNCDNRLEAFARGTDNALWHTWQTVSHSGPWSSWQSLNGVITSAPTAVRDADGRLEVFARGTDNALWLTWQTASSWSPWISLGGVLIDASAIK
Procedure: To analyse the competitive inhibition of PHL binding to a multivalent surface, the surface plasmon resonance (SPR) technique was employed. A sensor chip presenting α-L-fucopyranoside residues was treated with a constant concentration of PHL, while an increasing concentration of the ligands was used to determine IC50 (Table 2, Fig. 3). […] To assess the contribution of valency to the affinity increase, an affinity improvement factor β was calculated as the relationship IC50,basic unit/(valency × IC50,ligand)[30].
Surface plasmon resonance (SPR) experiments were performed on a BIAcore T200 instrument (GE Healthcare, UK) at 25 °C, using buffer A supplemented with 0.05% Tween 20 as a running buffer. α-L-fucoside was immobilized onto CM5 sensor chip (GE Healthcare, UK) covered with a carboxymethylated dextran matrix. The sensor chip surface was activated with N-ethyl-N-(3-dimethylaminopropyl)carbodiimide/N-hydroxysuccinimide solution and then coated with streptavidin using the manufacturer’s standard protocol using HBS buffer (10 mM HEPES, 150 mM NaCl, 0.05% Tween 20, pH 7. 5). Unreacted groups were blocked with 1 M ethanolamine-HCl, pH 8.5. Biotinylated carbohydrate (biotinilated monomeric probes, Lectinity, Russia) was injected onto particular measuring channel and pure biotin on blank channel at a flow rate of 5 μl/min.
SPR inhibition measurements were carried out on measuring channel with L-fucoside at a flow rate of 5 µl/min. PHL was diluted to a concentration of 20 μg/ml by the buffer A supplemented with 0.05% Tween 20, mixed 1:1 (v/v) with various concentrations of inhibitors (500–5 μM) in the same buffer and injected onto the sensor chip. The response of lectin bound to the sugar surface at equilibrium was plotted against the concentration of inhibitor in order to determine IC50 (concentration of inhibitor resulting in 50% inhibition of binding). As IC50 is not a constant and depends on the experimental set-up, a parameter called potency was used for characterization. The potency of a tested inhibitor is the ratio of IC50 of a chosen standard inhibitor (in this case L-fucose) and the inhibitor in question. Pure PHL lectin was used as a control (0% inhibition) and channel with pure biotin served as a blank. IC50 was determined from triplicates.

PHL [2] = biological target: T1, PHL; assay: Hemagglutination inhibition assay with PHL (papain-treated human RBCs O); assay type: cell-based; settings: for MIC (minimal inhibitory concentration, hemagglutination by PHL): RBC O, two independent measurements; for PotencyL-Fuc / β L-Fuc (affinity improvement factor) / β Azide1 (affinity improvement factor) / PotencyAzide1: hemagglutination; for PotencyL-Fuc: MIC L-fucose / MIC ligand; for β L-Fuc (affinity improvement factor): MICbasic unit/(valency × MICligand), basic unit L-Fuc; for β Azide1 (affinity improvement factor): basic unit azide 1; for PotencyAzide1: relative to azide 1
Procedure: The set of potential ligands 1–10 with different levels of fucosylation was tested, and their inhibition potency on hemagglutination by PHL was assessed (Table 1, Fig. 2). […] To assess the contribution of valency to the affinity increase, an affinity improvement factor β was calculated as the relationship MICbasic unit/(valency × MICligand).
Human red blood cells (RBCs) O were processed according to previously published work[16]. In brief, RBCs O treated with sodium citrate were washed four times by PBS buffer (137 mM NaCl, 2.7 mM KCl, 8 mM Na2HPO4, 1.47 mM KH2PO4, pH 7.4), diluted to 50% by PBS with 0.005% (w/w) sodium azide and treated by 0.1% papain for the duration of 30 minutes.
Hemagglutination inhibition assay was performed for specificity and semi-quantitative affinity of the PHL interaction with the compounds. All carbohydrate inhibitors in 50 mM starting concentration were serially diluted in the PBS buffer and used for a determination of the lowest inhibiting concentration. As a blank, the PBS buffer supplemented with the appropriate amount of DMSO was used in order to exclude potential interference with the interaction. The individual samples were mixed with the lectin in concentration 2 mg/ml in a 5 μl:5 μl ratio. Thereafter, 10 μl of 10% RBCs O in PBS buffer was added, thoroughly mixed and incubated for 10 minutes at room temperature. Following incubation, the mixture was again mixed and the reaction was observed on microscope slides using Levenhuk 2L NG microscope with Levenhuk D2L digital camera (Levenhuk, USA). Imagines were obtained via software ToupView for Windows (Levenhuk). The positive (PHL without inhibitor) and negative control (reaction without PHL) were prepared and processed in the same way using the appropriate volume of PBS buffer instead of the not included components. The lowest concentration of inhibitor able to inhibit agglutination was determined and compared with the standard (L-fucose). Minimal inhibitory concentrations (MIC) of synthesised inhibitors were determined from two independent measurements.

[3] = tested on: P. asymbiotica subsp. australis cells; assay: Cell aggregation (cross-linking) assay; assay type: cell-based, Photorhabdus asymbiotica subsp. australis; settings: three independent measurements
Description: Because of the aggregation of PHL by calixarenes and dendrimers during SPR and ITC experiments, we decided to compare tetravalent compounds at a higher level. We performed a series of in vitro aggregation assays to reveal their aggregation properties towards P. asymbiotica subsp. australis (Table 4, Fig. 5). Prior to each assay, we confirmed the absence of aggregates in two negative controls – bacterial cells in PBS buffer and in the presence of azide 1 as a monomer. With all chosen compounds, we observed bacterial aggregates of a variable size that confirmed that they are capable of interacting with a cell surface. This effect may be caused by interaction of the multivalent inhibitors with PHL or other receptors. The concentration of the first appearance of aggregates varied according to the nature of the ligand used. […] An unexpected observation was that calixarene 7 had the lowest aggregation potential. In contrast to other techniques (hemagglutination, SPR and ITC), where calixarenes 6 and 7 provided similar results, during cross-linking experiments calixarene 7 was four times worse than calixarene 6. At the same time, both tetrameric calixarenes 6 and 7 are in a 1,3-alternate conformation with the two-faced presentation of the fucopyranosyl epitopes on opposite regions probably occupying a similar spatial orientation. The only difference is the tert-Bu group on the upper rim in calixarene 6, which might contribute to nonpolar interactions with whole P. asymbiotica cells.
P. asymbiotica subsp. australis was inoculated from stock cells stored at −80 °C into a standard LB media and were grown in 30 °C under an orbital shaking overnight. Bacterial growth was tracked by measuring the optical density of the broth at 600 nm (OD600) using a spectrophotometer (Biochrom Ltd., BioPhotometer WGA CO 8000 Biowave). Cells were harvested when reaching an OD600 = 0.5. The culture was centrifuged at 4,300 g and room temperature for 2 minutes (Minispin, Eppendorf, Germany) and cells were then washed three times with PBS buffer. Cells were diluted in PBS to OD600 of 2.0 and kept in a fridge until performing the aggregation assay.
P. asymbiotica subsp. australis cells and fucosylated compounds in a concentration ranging from 50 mM to 3.125 mM were gently mixed in a 9:1 (v/v) ratio. The reaction mixtures were left at room temperature for 10 minutes. 5 µl of reaction mixture was then transferred onto a microscope slide and observed under a fluorescence microscope (OLYMPUS IX81 Microscope IX81F-3 with IX2-UCB-2 Controller and X-Cite 120PC Q; Olympus and Excelitas Technologies, Japan, resp. USA). As a negative control, bacterial cells with/without azide 1 as a monomer were used. Three independent measurements were performed.

PHL [4] = biological target: T1, PHL; assay: Isothermal titration calorimetry of PHL with ligands; assay type: binding; settings: for n (stoichiometry): two independent measurements; for Potency L-Fuc: KD L-fucose / KD ligand; for β L-Fuc (affinity improvement factor): KD,basic unit/(valency × KD,ligand), basic unit L-Fuc
Description: The binding of PHL to different α-L-fucoside compounds was further characterized by isothermal titration calorimetry (ITC), enabling determination of the complete thermodynamic profile of the molecular interactions (Table 3, Fig. 4). […] Because of this, it was not possible to evaluate the data, despite the obvious interaction. The dendrimers also cross-linked/aggregated the protein as with calixarenes, however the curves provided clear outcomes with an affinity in the low micromolar range. The dissociation constants (KD) of all dendrimers correlate with their valency – the higher number of fucose, the more decreased KD. […] The stoichiometry value n corresponds to the number of terminal fucoses per ligand molecule. The n value decreases from 4 to 1 as the number of fucose units increases from 1 to 12 (Table 3).
PHL protein in buffer A was equilibrated at room temperature at least for 30 min before ITC measurement. All ITC experiments were performed using ITC200 calorimeter (Malvern Panalytical, UK) at 25 °C. Carbohydrate ligands dissolved in buffer A were used at different concentrations. Protein in the calorimeter cell (50 μM) was titrated by consecutive additions (2 μl) of the ligand (1.5–5 mM) in the syringe while stirring at 1000 rpm. Integrated heat effects were analysed by nonlinear regression using a single-site binding model and global fitting in Origin 7 software (Microcal Instruments)[37]. The thermodynamic parameters of synthesised inhibitors were determined from two independent measurements.

| Structure (SMILES) | IC50 (PHL [1]) | β L-Fuc (affinity improvement factor) (PHL [1]) | PotencyL-Fuc (PHL [1]) | β Azide1 (affinity improvement factor) (PHL [1]; basic unit azide 1) | PotencyAzide1 (PHL [1]; relative to azide 1) | MIC (minimal inhibitory concentration, hemagglutination by PHL) (PHL [2]) | PotencyL-Fuc (PHL [2]) | β L-Fuc (affinity improvement factor) (PHL [2]) | β Azide1 (affinity improvement factor) (PHL [2]) | PotencyAzide1 (PHL [2]) | Kd (PHL [4]; ITC at 25 °C) | −TΔS (PHL [4]; ITC at 25 °C) | −ΔG (PHL [4]; ITC at 25 °C) | −ΔH (PHL [4]; ITC at 25 °C) | n (stoichiometry) (PHL [4]; ITC at 25 °C) | Potency L-Fuc (PHL [4]; ITC) | β L-Fuc (affinity improvement factor) (PHL [4]; ITC) | further results |
| --- | --- | --- | --- | --- | --- | --- | --- | --- | --- | --- | --- | --- | --- | --- | --- | --- | --- | --- |
| C[C@@H]1O[C@@H](CCn2cc(COc3c4cc(C(C)(C)C)cc3Cc3cc(C(C)(C)C)cc(c3OCc3cn(CC[C@@H]5O[C@@H](C)[C@@H](O)[C@@H](O)[C@@H]5O)nn3)Cc3cc(C(C)(C)C)cc(c3OCc3cn(CC[C@@H]5O[C@@H](C)[C@@H](O)[C@@H](O)[C@@H]5O)nn3)Cc3cc(C(C)(C)C)cc(c3OCc3cn(CC[C@@H]5O[C@@H](C)[C@@H](O)[C@@H](O)[C@@H]5O)nn3)C4)nn2)[C@@H](O)[C@H](O)[C@@H]1O [Calixarene 6] | 0.195 ± 0.023 µM | 464 | 1,853 | 15 | 59 | 100 µM (≈ 167 µg/mL) | 31.3 | 7.8 | 0.5 | 2 | – | – | – | – | – | – | – | β Azide1 (affinity improvement factor) (PHL [1]; basic unit azide 1, listed as calixarene 6): approximately 15; The lowest concentration able to aggregate P. asymbiotica cells [3]: 1.25 mM |
| C[C@@H]1O[C@@H](CCn2cc(COCC(COCc3cn(CC[C@@H]4O[C@@H](C)[C@@H](O)[C@@H](O)[C@@H]4O)nn3)(COCc3cn(CC[C@@H]4O[C@@H](C)[C@@H](O)[C@@H](O)[C@@H]4O)nn3)COCC(COCc3cn(CC[C@@H]4O[C@@H](C)[C@@H](O)[C@@H](O)[C@@H]4O)nn3)(COCc3cn(CC[C@@H]4O[C@@H](C)[C@@H](O)[C@@H](O)[C@@H]4O)nn3)COCc3cn(CC[C@@H]4O[C@@H](C)[C@@H](O)[C@@H](O)[C@@H]4O)nn3)nn2)[C@@H](O)[C@H](O)[C@@H]1O [Dendrimer 9] | 0.037 ± 0.003 µM | 1,631 | 9,762 | 52 | 311 | 25 µM (≈ 44.6 µg/mL) | 125 | 20.8 | 1.3 | 8 | 12.5 ± 0.6 µM | 10.4 ± 0.382 kcal/mol | 6.69 ± 0.311 kcal/mol | 17.1 ± 0.19 kcal/mol | 2.0 ± 0.0 | 112 | 19 | Kd (PHL [4]; ITC at 25 °C, listed as hexavalent dendrimer): 13 µM; β Azide1 (affinity improvement factor) (PHL [4]; ITC, basic unit azide 1): 1; PotencyAzide1 (PHL [4]; ITC, relative to azide 1): 8; β L-Fuc (affinity improvement factor) (PHL [1]; listed as dendrimer 9): over 1,600; PotencyL-Fuc (PHL [1]; listed as dendrimer 9): 9,800; PotencyAzide1 (PHL [1]; relative to azide 1, listed as dendrimer 9): 310; PotencyL-Fuc (PHL [2]; listed as dendrimer 9): more than 100 |
| C[C@@H]1OC(CCCCC2O[C@@H](C)[C@@H](O)[C@@H](O)[C@@H]2O)[C@@H](O)[C@H](O)[C@@H]1O (stereo partly drawn) [Difucoside 5, 1,4-bis(fucopyranosyl)butane] | 4.18 ± 0.42 µM | 43 | 86 | – | – | 200 µM (≈ 70.1 µg/mL) | 15.6 | 7.8 | – | – | 120 ± 11 µM | 3.61 ± 0.789 kcal/mol | 5.35 ± 0.502 kcal/mol | 8.96 ± 0.621 kcal/mol | 3.9 ± 0.2 | 12 | 6 | PotencyL-Fuc (PHL [2]; listed as difucoside 5): 16 |
| C[C@H](O)[C@@H](O)[C@@H](O)[C@H](O)C=O [L -Fuc, L-fucose, reference compound] | 362 ± 33 µM | 1 | 1 | – | – | 3,200 μM | 1 | 1 | – | – | 1400 µM | 10.3 ± 0.239 kcal/mol | 3.9 ± 0.096 kcal/mol | 14.2 ± 0.239 kcal/mol | – | 1 | 1 | n (stoichiometry), fixed during the fitting procedure (PHL [4]; ITC at 25 °C, fixed value based on α-Me-Fuc measurement and PHL/BGH crystal structure): 3* |
